Several values for one entry are separate records, joined by “and”; a condition that tells them apart may be missing. Identical values can stand only once.
Assays:
[1] = system: TNF-α; assay: Reduction of lipopolysaccharide-induced tumor necrosis factor levels in mice; format: in vivo, BALB/c female mice; conditions: for % TNF-α Inhibtion, IP 30: 30 μg per mouse; for % TNF-α Inhibtion, IP 30 / % TNF-α Inhibtion, IP 100 / % TNF-α Inhibtion, IP 300 / % TNF-α Inhibtion, Oral 600 / % TNF-α Inhibtion, Oral 300: plasma 90 or 105 minutes after LPS, mean ± SEM; for % TNF-α Inhibtion, IP 100: 100 μg per mouse; for % TNF-α Inhibtion, IP 300 / % TNF-α Inhibtion, Oral 300: 300 μg per mouse; for % TNF-α Inhibtion, Oral 600: 600 μg per mouse
Method: BALB/c female mice weighing approximately 20 g were placed into a control group and a treated group. Five mg/kg of LPS in 0.9% saline was administered (100 μl to give 100 μg LPS per mouse) by intraperitoneal (IP) injection to all mice. Mice in the treatment group received either 30, 100, 300 or 600 μg of various isoquinoline compounds per mouse in a volume of 100 μl of PBS. Control mice received 100 μl of saline alone. One minute after initial injections all mice received the LPS injection. As a positive control, 100 μg of HP 228 was injected per mouse.
Blood samples were collected from the orbital sinus of treated and control mice 90 minutes or 105 minutes after LPS administration. The plasma was separated by centrifugation at 3000×g for 5 min and stored at −20° C. Samples were thawed and diluted, if TNF-α concentration was greater than 3200 pg/ml, with PBS containing 1% bovine serum albumin, 10% donor horse serum, 1% normal mouse serum, 0.05% TWEEN-20 and 0.05% thimerosal. A 100 μl sample of plasma was assayed by ELISA for TNF-α. Briefly, ELISA plates were coated with hamster anti-mouse TNF-α antibody (Genzyme; Cambridge Mass.). Samples or known concentrations of TNF-α were added to the coated plates and incubated for 2 hr at 37° C. Plates were washed and subsequently incubated with biotinylated rabbit anti-mouse TNG-α for 1 hr at 37° C. Plates were washed and incubated with streptavidin-HRP for 1 hr at 37° C., and HRP activity was detected with hydrogen peroxide and o-phenylenediamine (OPD) using standard immunoassay procedures.
The mean (±SEM) TNF-α level in five mice from each group was determined and the percent reduction in TNF-α levels was calculated.

[2] = target: T1, MCR-3 (Homo sapiens, UniProt P41968); assay: Melanocortin receptor binding assay, competition with 125I-HP 467, HEK 293 cells expressing hMCR-3; conditions: binding to MCR-3, HEK 293 cells; read-out: MC-3 IC50
T1 construct: expressed in transfected cells; host or cells: HEK 293
T1 sequence (P41968 whole entry): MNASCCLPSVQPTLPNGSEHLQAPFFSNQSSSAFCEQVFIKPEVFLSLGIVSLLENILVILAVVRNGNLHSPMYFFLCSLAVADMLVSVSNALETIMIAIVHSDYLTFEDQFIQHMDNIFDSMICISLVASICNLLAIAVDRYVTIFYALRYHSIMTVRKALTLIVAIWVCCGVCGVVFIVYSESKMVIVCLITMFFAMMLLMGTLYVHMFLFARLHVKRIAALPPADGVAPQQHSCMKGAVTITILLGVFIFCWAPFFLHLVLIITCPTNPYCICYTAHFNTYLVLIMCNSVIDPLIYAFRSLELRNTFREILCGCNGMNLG
From the text: All cell culture media and reagents were obtained from GibcoBRL (Gaithersburg Md.), except for COSMIC CALF SERUM (HyClone; Logan Utah). HEK-293 cell lines were transfected with the human MC receptors hMCR-1, hMCR-3, and hMCR-4 (Gantz et al., Biochem. Biophys. Res. Comm. 200:1214-1220 (1994); Gantz et al., J. Biol. Chem. 268:8246-8250 (1993); Gantz et al. J. Biol. Chem. 268:15174-15179 (1993); Haskell-Leuvano et al., Biochem. Biophys. Res. Comm. 204:1137-1142 (1994); each of which is incorporated herein by reference). Vectors for construction of an hMCR-5 expressing cell line were obtained, and a line of HEK 293 cells expressing hMCR-5 was constructed (Gantz, supra, 1994). hMCR-5 has been described previously (Franberg et al., Biochem. Biophys. Res. Commun. 236:489-492 (1997); Chowdhary et al., Cytogenet. Cell Genet. 68:1-2 (1995); Chowdhary et al., Cytogenet. Cell Genet. 68:79-81 (1995), each of which is incorporated herein by reference). HEK 293 cells were maintained in DMEM, 25 mM HEPES, 2 mM glutamine, non-essential amino acids, vitamins, sodium pyruvate, 10% COSMIC CALF SERUM, 100 units/ml penicillin, 100 μg/ml streptomycin and 0.2 mg/ml G418 to maintain selection.
Before assaying, cells were washed once with phosphate buffered saline (“PBS”; without Ca^2+ and Mg^2+), and stripped from the flasks using 0.25% trypsin and 0.5 mM EDTA. Cells were suspended in PBS, 10% COSMIC CALF SERUM and 1 mM CaCl2. Cell suspensions were prepared at a density of 2×10^4 cells/ml for HEK 293 cells expressing hMCR-3, hMCR-4 or hMCR-5, and 1×10^5 cells/ml for HEK 293 cells expressing hMCR-1. Suspensions were placed in a water bath and allowed to warm to 37° C. for 1 hr.
Binding assays were performed in a total volume of 250 μl for HEK 293 cells. Control and test compounds were dissolved in distilled water. ^125I-HP 467 (50,000 dpm) (2000 Ci/mmol) (custom labeled by Amersham; Arlington Heights Ill.) was prepared in 50 mM Tris, pH 7.4, 2 mg/ml BSA, 10 mM CaCl2, 5 mM MgCl2, 2 mM EDTA and added to each tube. To each tube was added 4×10^3 HEK 293 cells expressing hMCR-3, hMCR-4 or hMCR-5, or 2×10^4 cells expressing hMCR-1. Assays were incubated for 2.5 hr at 37° C.
GF/B filter plates were prepared by soaking for at least one hour in 5 mg/ml BSA and 10 mM CaCl2. Assays were filtered using a Brandel 96-well cell harvester (Brandel Inc.; Gaithersburg, Md.). The filters were washed four times with cold 50 mM Tris, pH 7.4, the filter plates were dehydrated for 2 hr and 35 μl of MICROSCINT was added to each well. Filter plates were counted using a Packard Topcount (Packard Instrument Co.) and data analyzed using GraphPad PRISM v2.0 (GraphPad Software Inc.; San Diego Calif.) and Microsoft EXCEL v5.0a (Microsoft Corp.; Redmond Wash.).
To assay isoquinoline compounds, binding assays were performed in duplicate in a 96 well format. HP 467 was prepared in 50 mM Tris, pH 7.4, and ^125I-HP 467 was diluted to give 100,000 dpm per 50 μl. An isoquinoline compound, synthesized as described in Example I, was added to the well in 25 μl aliquots. A 25 μl aliquot of ^125I-HP 467 was added to each well. A 0.2 ml aliquot of suspended cells was added to each well to give the cell numbers indicate above, and the cells were incubated at 37° C. for 2.5 hr. Cells were harvested on GF/B filter plates as described above and counted.
Some of the isoquinoline compounds were further tested for binding to MCR-3 and MCR-5.

Row | SMILES | IC50 [2] | % TNF-α Inhibtion, IP 30 [1] | % TNF-α Inhibtion, IP 100 [1] | % TNF-α Inhibtion, IP 300 [1] | decrease of TNF-α levels ([1]; LPS treated mice) | % TNF-α Inhibtion, Oral 600 [1] | % TNF-α Inhibtion, Oral 300 [1] | inhibiting TNF-α ([1]; LPS treated mice, both i.p. and oral administration)
1 | CNC(CN)CCCCN1Cc2ccccc2C(CNC2CCCCC2)C1c1ccc(N(C)C)cc1 (stereo not drawn) [TRG 2405-235] | 22.3 µM | 8 ± 7% | 39 ± 7% | 50 ± 9% | – | – | – | –
2 | CNC(CN)CCCCN1Cc2ccccc2C(CNC2CCCCC2)C1c1ccc(C(F)(F)F)cc1 (stereo not drawn) [TRG 2405-238] | > 10 µM | 19 ± 7% | 73 ± 1 % | 84 ± 18 % | – | 6 ± 28% | – | –
3 | CNC(CN)CCCCN1Cc2ccccc2C(CNC2CCCCC2)C1c1ccc(-c2ccccc2)cc1 (stereo not drawn) [TRG 2405-241] | 7.45 µM | 26 ± 15% | 75 ± 3 % | 45 ± 9% | particularly effective at decreasing TNF-α | 74 ± 8 % | 38 ± 9 % | –
4 | CNC(CN)CCCCN1Cc2ccccc2C(CN)C1c1ccc(Cl)cc1Cl (stereo not drawn) [TRG 2407-39] | 0.28 µM | 24 ± 17% | – | 72 ± 5 % | – | – | – | –
5 | CCNc1ccc(C2C(CNCc3ccccc3O)c3ccccc3CN2CCCC(CN)NCCc2ccccc2)cc1 (stereo not drawn) [TRG 2408-57] | 5.17 µM | 76 ± 8 % | 83 ± 2 % and 87 ± 5 % | 86 ± 2 % | – | 72 ± 7 % | 21 ± 11% | –
6 | CCNc1ccc(C2C(CNC3CCCCC3)c3ccccc3CN2CCCC(CN)NCCc2ccccc2)cc1 (stereo not drawn) [TRG 2408-62] | 5.71 µM | 71 ± 6 % | – | 84 ± 8 % | – | 35 ± 5% | 45 ± 11% | –
7 | CCCCNc1ccc(C2C(CNCc3ccccc3O)c3ccccc3CN2CCCCC(CN)NC)cc1 (stereo not drawn) [TRG 2409-2] | – | 57 ± 6 % | – | 65 ± 14% | – | 65 ± 2 % | 58 ± 2 % | –
8 | CCCCNc1ccc(C2C(CNC3CCCCC3)c3ccccc3CN2CCCCC(CN)NC)cc1 (stereo not drawn) [TRG 2409-14] | – | 31 ± 7% | – | 76 ± 7 % | – | 67 ± 4 % | 41 ± 9 % | –

More lines, main results first:

Row | IC50 [2] | SMILES | % TNF-α Inhibtion, IP 30 [1] | % TNF-α Inhibtion, IP 100 [1] | % TNF-α Inhibtion, IP 300 [1] | decrease of TNF-α levels ([1]; LPS treated mice) | % TNF-α Inhibtion, Oral 600 [1] | % TNF-α Inhibtion, Oral 300 [1] | inhibiting TNF-α ([1]; LPS treated mice, both i.p. and oral administration)
9 | 23.7 µM | CNC(CN)CN1Cc2ccccc2C(CNC2CCCCC2)C1c1ccc(O)cc1 (stereo not drawn) [TRG 2405-156] | 30 ± 13% | 12 ± 7% | 48 ± 16% | – | – | – | –
10 | 2.24 µM | CNC(CN)CCCCN1Cc2ccccc2C(CNC2CCCCC2)C1c1ccc(Cl)cc1Cl (stereo not drawn) [TRG 2405-190] | 70 ± 11 % | −6 ± 7% | 83 ± 11 % | particularly effective at decreasing TNF-α | – | – | –
11 | 39.8 µM | CCNc1ccc(C2C(CNC3CCCCC3)c3ccccc3CN2CCCCC(CN)NC)cc1 (stereo not drawn) [TRG 2405-239] | 13 ± 8% | 10 ± 6% | 66 ± 9 % | – | 9 ± 14% | – | –
12 | 0.55 µM | CNC(CN)CCCCN1Cc2ccccc2C(CNC2CCCCC2)C1c1ccc(Br)cc1 (stereo not drawn) [TRG 2405-242] | 21 ± 8% | 60 ± 4 % | 68 ± 5 % | – | – | – | –
13 | > 10 µM | CNC(CN)CCCCN1Cc2ccccc2C(CNC2CCCCC2)C1c1ccc(O)cc1 (stereo not drawn) [TRG 2405-246] | 27 ± 9% | – | 80 ± 3 % | – | −29 ± 31 % | – | –
14 | 6.49 µM | CNC(CN)CCCCN1Cc2ccccc2C(CNC2CCCCC2)C1c1ccc(Oc2ccccc2)cc1 (stereo not drawn) [TRG 2405-252] | 49 ± 14 % | – | 90 ± 2 % | particularly effective at decreasing TNF-α | 55 ± 13 % | – | –
15 | 9.68 µM | CCCOc1ccc(C2C(CNC3CCCCC3)c3ccccc3CN2CCCCC(CN)NC)cc1 (stereo not drawn) [TRG 2405-253] | 46 ± 8% | – | 80 ± 7% | particularly effective at decreasing TNF-α | – | – | –
16 | > 10 µM | CNC(CN)CCCCN1Cc2ccccc2C(CNC2CCCCC2)C1c1ccc2cccc(O)c2n1 (stereo not drawn) [TRG 2405-262] | – | – | 83 ± 3 % | – | – | – | –
17 | 40.4 µM | CCNc1ccc(C2C(CNC3CCCCC3)c3ccccc3CN2CCCCC(CN)NC)cc1 (stereo not drawn) [TRG 2408-30] | 30 ± 14% | – | 78 ± 3 % | particularly effective at decreasing TNF-α | 74 ± 4 % | 42 ± 14 % | particularly effective at inhibiting TNF-α

Source: patent publication US6608082B1, “Treatment of erectile dysfunction using isoquinoline compound melanocortin receptor ligands” (Lion Bioscience AG, priority 1998, dated 2003)
